A word on the inhibition: it is the relative decrease from the control value, in per cent.

The structures appear in SMILES notation.

For the first test, the system named is SARS-CoV-2. As to the kind of experiment: Confirmation test of suppressing effect against SARS-CoV-2 proliferation (nucleocapsid Western blotting, VeroE6/TMPRSS2 cells). The following applies: 20 μM Pin1 inhibitor, VeroE6/TMPRSS2 cells, MOI 10, cell lysate 8 hours after infection, nucleocapsid band area vs no inhibitor. In kind it is cell-based. Background: In western blotting, separated proteins are transferred to a membrane and probed.
`O=C(Nc1ccc(OCc2ccc3ccccc3c2)cc1C(=O)O)c1ccc2ccccc2c1` [H-371]: the “Inhibition Rate” value is reported as 99%.
Turning to `O=C(Nc1ccc(OCc2ccc3ccccc3c2)cc1C(=O)O)c1ccc2ccccc2c1` [H-487], the “Inhibition Rate” value is 63%.

The test is the same for the next values; noted with them: Severe acute respiratory syndrome coronavirus 2, VeroE6/TMPRSS2, 8 h, 20 μM Pin1 inhibitor, VeroE6/TMPRSS2 cells, MOI 10, cell lysate 8 hours after infection, nucleocapsid band area vs no inhibitor; read-out: Inhibition Rate.
For `O=C(O[C@H](Cc1ccc2ccccc2c1)C(=O)O)c1ccc2ccccc2c1` [H-30], the inhibition at 20 µM came to 99%.
Still for that read-out and setting: in the case of `COc1ccc(-c2cc(C(=O)O[C@H](Cc3ccc4ccccc4c3)C(=O)O)c(C)o2)cc1` [H-32] it was 86%; in that of `O=C(O[C@H](Cc1ccc2ccccc2c1)C(=O)O)c1ccc(-c2ccccc2)cc1` [H-33], 100%; in that of `O=C(Nc1ccc(OCc2ccccc2)cc1C(=O)O)OCc1ccccc1` [H-78], 96%.
In the case of `O=C(N[C@H](Cc1c[nH]c2ccccc12)C(=O)O)OCC1c2ccccc2-c2ccccc21` [H-95], the inhibition at 20 µM was 95%.
In the case of `O=C(CC1c2ccccc2-c2ccccc21)N[C@H](Cc1ccc2ccccc2c1)C(=O)O` [H-103], the inhibition at 20 µM is 100%.
In the case of `O=C(N[C@H](Cc1ccc2ccccc2c1)C(=O)OCc1ccccc1)C1c2ccccc2-c2ccccc21` [H-105], the inhibition at 20 µM is 100%.
In the case of `O=C(CC1c2ccccc2-c2ccccc21)O[C@H](Cc1ccc2ccccc2c1)C(=O)O` [H-106], the inhibition at 20 µM came out at 100%.
On the same count and under the same terms, under `O=C(O[C@H](Cc1ccc2ccccc2c1)C(=O)O)c1ccc(Oc2ccccc2)cc1` [H-123] stands 99%.
As to `O=C(O[C@H](Cc1ccc2ccccc2c1)C(=O)O)c1cccc(Oc2ccccc2)c1` [H-130], the inhibition at 20 µM was 100%.
As for `O=C(O[C@H](Cc1ccc2ccccc2c1)C(=O)O)c1ccccc1Oc1ccccc1` [H-132], the inhibition at 20 µM came out at 99%.
Same read-out and setting: in the case of `O=C(O[C@H](Cc1ccc2ccccc2c1)C(=O)O)C(c1ccccc1)c1ccccc1` [H-134] it was 98%; in that of `O=C(Cc1ccc2ccccc2c1)O[C@H](Cc1ccc2ccccc2c1)C(=O)O` [H-149], 99%; in that of `O=C(Cc1cccc2ccccc12)O[C@H](Cc1ccc2ccccc2c1)C(=O)O` [H-151], 98%.
The same measure, in the same setting: in the case of `O=C(O)[C@@H](Cc1ccc2ccccc2c1)OC(=O)N1c2ccccc2Oc2ccccc21` [H-157] it was 100%; in that of `O=C(O)[C@@H](Cc1ccc2ccccc2c1)NC(=O)N1c2ccccc2Oc2ccccc21` [H-162], 99%.
For the compound `O=C(O)[C@@H](Cc1ccc2ccccc2c1)OC(=O)n1c2ccccc2c2ccccc21` [H-175], the inhibition at 20 µM was 100%.
In the case of `O=C(COc1ccc2ccccc2c1)O[C@H](Cc1ccc2ccccc2c1)C(=O)O` [H-177], the inhibition at 20 µM is 99%.
Regarding `O=C(COc1cccc2ccccc12)O[C@H](Cc1ccc2ccccc2c1)C(=O)O` [H-179], the inhibition at 20 µM turned out to be 97%.
As for `O=C(O)[C@@H](Cc1ccc2ccccc2c1)OCc1ccc2ccccc2c1` [H-181], the inhibition at 20 µM turned out to be 99%.
Still for that read-out and setting: in the case of `COc1cc(OC)cc(C(=O)O[C@H](Cc2ccc3ccccc3c2)C(=O)O)c1` [H-198] it was 67%; in that of `O=C(O[C@H](Cc1ccc2ccccc2c1)C(=O)O)c1cc(Cl)cc(Cl)c1` [H-200], 98%.
Turning to `Cc1cc(C)cc(C(=O)O[C@H](Cc2ccc3ccccc3c2)C(=O)O)c1` [H-210], the inhibition at 20 µM amounted to 99%.
`CC(C)(C)OC(=O)N[C@@H](Cc1ccccc1)C(=O)O[C@H](Cc1ccc2ccccc2c1)C(=O)O` [H-248]: the inhibition at 20 µM was found to be 88%.
Take `COc1ccc2c(c1)C(C(=O)O[C@H](Cc1ccc3ccccc3c1)C(=O)O)c1ccccc1-2` (stereo partly shown) [H-254]: the inhibition at 20 µM amounted to 94%.
As to `O=C(O[C@H](Cc1ccc2ccccc2c1)C(=O)O)C1c2ccccc2-c2ccc(F)cc21` (stereo partly shown) [H-262], the inhibition at 20 µM was determined as 94%.
`O=C(O[C@H](Cc1ccc2ccccc2c1)C(=O)O)C1c2ccccc2-c2ccc(Cl)cc21` (stereo partly shown) [H-263]: the inhibition at 20 µM turned out to be 54%.
Take `O=C(O[C@H](Cc1ccc2ccccc2c1)C(=O)O)c1ccc(Cl)c(Cl)c1` [H-269]: the inhibition at 20 µM was determined as 98%.
Same read-out and setting: under `O=C(O)[C@@H](Cc1ccc(OCc2ccccc2)cc1)NC(=O)N1c2ccccc2Oc2ccccc21` [H-336] stands 98%.
In the case of `O=C(O)[C@@H](Cc1ccc(OCc2ccccc2)cc1)NC(=O)n1c2ccccc2c2ccccc21` [H-337], the inhibition at 20 µM was 100%.
On to `O=C(O)c1cc(OCc2ccccc2)ccc1NS(=O)(=O)c1ccc2ccccc2c1` [H-338], for which the inhibition at 20 µM came out at 99%.
Still for that read-out and setting: under `O=C(Nc1ccc(OCc2ccccc2)cc1C(=O)O)c1ccc2ccccc2n1` [H-339] stands 76%; under `O=C(O)[C@H](NC(=O)n1c2ccccc2c2ccccc21)c1ccccc1` [H-348], 81%; under `O=C(COc1ccc2ccccc2c1)Nc1ccc(OCc2ccccc2)cc1C(=O)O` [H-362], 99%.
For `O=C(Nc1ccc(OCc2ccccc2)cc1C(=O)O)c1cccc(Oc2ccccc2)c1` [H-363], the inhibition at 20 µM was determined as 99%.
Still for that read-out and setting: under `O=C(O)c1cc(OCc2ccccc2)ccc1NC(=O)c1cccc2ccccc12` [H-370] stands 98%; under `COC(=O)[C@@H](Cc1ccc2ccccc2c1)NC(=O)n1c2ccccc2c2ccccc21` [H-393], 80%; under `O=C(Nc1ccc(OCc2ccccc2)cc1C(=O)O)c1ccc2ccccc2c1` [H-429], 99%.
As for `O=C(O[C@H](Cc1cccc2ccccc12)C(=O)O)c1ccc2ccccc2c1` [H-438], the inhibition at 20 µM was determined as 99%.
For the compound `O=C(O)c1cc(OCc2ccc3ccccc3c2)c(C(=O)O)cc1OCc1ccc2ccccc2c1` [H-444], the inhibition at 20 µM was 55%.
Take `O=C(Nc1ccc(OCc2ccc3ccccc3c2)c(C(=O)O)c1)c1ccc2ccccc2c1` [H-448]: the inhibition at 20 µM is 100%.
Still for that read-out and setting: under `O=C(O[C@H](Cc1ccc2ccccc2c1)C(=O)O)c1cccc2ccccc12` [H-452] stands 52%.
Turning to `O=C(O)[C@@H](Cc1ccc2ccccc2c1)OCc1ccccc1Oc1ccccc1` [H-464], the inhibition at 20 µM was 100%.
Still for that read-out and setting: in the case of `O=C(O)c1cc(OCc2ccc3ccccc3c2)ccc1OCc1ccc2ccccc2c1` [H-488] it was 100%; in that of `O=C(O)c1ccc(OCc2ccc3ccccc3c2)cc1OCc1ccc2ccccc2c1` [H-489], 99%.
Regarding `O=C(O)c1cc(OCc2ccc3ccccc3c2)cc(OCc2ccc3ccccc3c2)c1` [H-491], the inhibition at 20 µM stood at 91%.
In the case of `O=C(O)CCC(Cc1ccc2ccccc2c1)OC(=O)c1ccc2ccccc2c1` (stereo not shown) [H-507], the inhibition at 20 µM was found to be 99%.
With `O=C(O)[C@@H](Cc1cccc2ccccc12)NC(=O)n1c2ccccc2c2ccccc21` [H-509], the inhibition at 20 µM is 98%.
Same read-out and setting: in the case of `COc1ccc2cc(CC(OC(=O)c3ccc4ccccc4c3)C(=O)O)ccc2c1` (stereo not shown) [H-512] it was 90%; in that of `O=C(O)CC(Cc1ccc2ccccc2c1)OC(=O)c1ccc2ccccc2c1` (stereo not shown) [H-514], 99%.
Regarding `O=C(Cn1c2ccccc2c2ccccc21)N[C@H](Cc1ccc2ccccc2c1)C(=O)O` [H-536], the inhibition at 20 µM turned out to be 75%.
Turning to `O=C(O)c1cc(NC(=O)n2c3ccccc3c3ccccc32)cc(NC(=O)n2c3ccccc3c3ccccc32)c1` [H-596], the inhibition at 20 µM came out at 99%.
For `O=C(O[C@H](Cc1ccc2ccccc2c1)C(=O)O)C1c2ccccc2-c2ccccc21` [H-614], the inhibition at 20 µM was found to be 96%.
Regarding `O=C(N[C@@H](CCCN1C(=O)c2ccccc2C1=O)C(=O)O)C1c2ccccc2-c2ccccc21` [H-619], the inhibition at 20 µM came out at 94%.
For the compound `COC(=O)c1cc(NC(=O)c2ccc3ccccc3c2)c[n+](Cc2ccc3ccccc3c2)c1` [H-626], the inhibition at 20 µM was 88%.
With `O=C(C/C(=C\c1ccc2ccccc2c1)C(=O)O)NC1c2ccccc2-c2ccccc21` [H-644], the inhibition at 20 µM came to 95%.
In the case of `COC(=O)/C(=C/c1ccc2c(c1)OCO2)CC(=O)Nc1cccc2ccccc12` [H-669], the inhibition at 20 µM worked out at 64%.
Still for that read-out and setting: in the case of `O=C(CC(Cc1ccc2c(c1)OCO2)C(=O)O)Nc1cccc2ccccc12` (stereo not shown) [H-674] it was 50%; in that of `CC(C)(C)OC(=O)Nc1cc(NC(=O)n2c3ccccc3c3ccccc32)cc(C(=O)O)c1` [H-678], 87%.
`COC(=O)c1cc(NC(=O)c2cccnc2)cc(NC(=O)n2c3ccccc3c3ccccc32)c1` [H-680]: the inhibition at 20 µM came to 53%.
As for `COC(=O)c1cc(NC(=O)c2ccc3ccccc3n2)cc(NC(=O)n2c3ccccc3c3ccccc32)c1` [H-684], the inhibition at 20 µM was 66%.
Turning to `COC(=O)c1cc(NC(=O)c2cnc3ccccc3n2)cc(NC(=O)n2c3ccccc3c3ccccc32)c1` [H-685], the inhibition at 20 µM is 58%.
`O=C(O)c1cc(NC(=O)c2cnc3ccccc3n2)cc(NC(=O)n2c3ccccc3c3ccccc32)c1` [H-691]: the inhibition at 20 µM stood at 52%.
Regarding `O=C(O)c1cc(NC(=O)C2COc3ccccc3O2)cc(NC(=O)n2c3ccccc3c3ccccc32)c1` (stereo not shown) [H-693], the inhibition at 20 µM came to 77%.
Regarding `COC(=O)c1cc(NC(C)=O)cc(NC(=O)n2c3ccccc3c3ccccc32)c1` [H-696-2], the inhibition at 20 µM worked out at 98%.
Still for that read-out and setting: under `COC(=O)[C@H](CCCNC(=O)c1cccnc1)NC(=O)n1c2ccccc2c2ccccc21` [H-707] stands 55%; under `O=C(NCCC[C@H](NC(=O)n1c2ccccc2c2ccccc21)C(=O)O)c1cccnc1` [H-708], 62%.
As for `O=C(NCCC[C@H](NC(=O)C1c2ccccc2-c2ccccc21)C(=O)O)c1cccnc1` [H-715], the inhibition at 20 µM was found to be 63%.
As to `O=C(NCCC[C@H](NC(=O)n1c2ccccc2c2ccccc21)C(=O)O)c1ccc2ccccc2c1` [H-717], the inhibition at 20 µM stood at 87%.
As for `COC(=O)c1cc(N)cc(NC(=O)N(c2ccccc2)c2ccccc2)c1` [H-725-2], the inhibition at 20 µM amounted to 81%.

Staying with this test, now noted: Severe acute respiratory syndrome coronavirus 2, VeroE6/TMPRSS2, 8 h, read-out: Inhibition Rate.
As for `COP(=O)(OC)OCC(COc1cccc2ccccc12)OCc1ccc2ccccc2c1` (stereo not shown) [H-546], the inhibition at 20 µM turned out to be 83%.

The values are drawn from patent US20240024266A1, “Therapeutic Agent or Prophylactic Agent for COVID-19” (priority 2020, published 2024).
